Data from a melting point compilation (Tetko et al.).

Row | SMILES | melting point [°C]
1 | CS(=O)(=O)c1ccc(Cl)c(NC(=O)CCl)c1 | 148 to 149
2 | ClCc1cc2ccccc2s1 | 49 to 51
3 | Cc1cccc2c(CC(=O)O)c(-c3ccccc3)[nH]c12 | 159 to 161
4 | CN(C)S(=O)(=O)c1ccc(C(=O)O)cc1Br | 185 to 187
5 | ClCc1nnc(-c2ccccc2Br)o1 | 104 to 107
6 | Nc1cccc(CN2CCC(O)CC2)c1 | 146 to 148
7 | N#Cc1n[nH]c2ccc(Cl)cc12 | 210 to 212
8 | CNC1CCN(c2cc(OC)cc(OC)c2)C1=O (centres undefined) | 73 to 75
9 | Cc1ccc(NC(=O)NC(=O)CCl)cc1C | 144 to 146
10 | CC(C)(C)c1ccc(C=CC(=O)O)cc1 | 206 to 208
11 | Cc1cc(C=O)c(C)n1-c1ccc2c(c1)CCC2 | 71 to 75
12 | O=C(O)CC1CCSCC1 | 69 to 71
13 | C=CS(=O)(=O)Oc1ccccc1 | 39 to 42
14 | COC(=O)CNC(=O)c1cccc(N)c1 | 103 to 105
15 | COc1ccc(CN2CCN(C(=O)CCNC(=O)c3ccc(C(C)(C)C)cc3)CC2)cc1 | 102 to 104
16 | CCc1ccc(OCC(=O)O)cc1 | 93 to 97
17 | CCOc1ccccc1OCC(=O)NN | 94 to 96
18 | Cc1c(N)cc(C(=O)NC(C)c2ccccc2)cc1F (centres undefined) | 96 to 98
19 | CN(C)c1nc(-c2ccccc2)c(C=O)s1 | 123 to 125
20 | NC1CCCOc2ccccc21 (centres undefined) | 69 to 71
21 | COc1ccc(NS(=O)(=O)c2cc(N)ccc2N2CCCCC2)cc1 | 145 to 154
22 | OC(c1cccnc1)C(F)(F)F (centres undefined) | 64 to 66
23 | O=C(O)c1cn(-c2ccccc2)nc1-c1ccc(Cl)s1 | 209 to 211
24 | NCCCN1C(=O)NC2(CCCC2)C1=O | 129 to 131

Row | SMILES | melting point [°C]
25 | Cc1cc(C(=O)O)cc(S(=O)(=O)Cl)c1Cl | 209 to 211
26 | OCc1ncc(-c2ccccc2)o1 | 117 to 119
27 | Nc1c(F)cc(Br)cc1C(=O)O | 214 to 216
28 | Cc1ccc(N)cc1S(=O)(=O)N1CCOCC1 | 186 to 188
29 | O=C(O)CN1C(=O)c2ccccc2C(F)(F)C1=O | 203 to 205
30 | Cc1ccc2c(c1)C(=O)CCC2 | 28 to 30
31 | CSCc1nnc(S)o1 | 71 to 73
32 | O=C(O)c1cnc2n1CCCC2 | 219 to 221
33 | Cc1[nH]c(C(=O)O)c(C)c1S(N)(=O)=O | 214 to 216
34 | O=Cc1cccc(OCCC(=O)O)c1 | 98 to 100
35 | CC(NC(N)=O)C1CC2CCC1C2 (centres undefined) | 167 to 169
36 | CC(Cl)C(=O)Nc1cccc2ccccc12 (centres undefined) | 146 to 148
37 | Cc1[nH]c(=O)[nH]c(=O)c1CCC(=O)O | 306 to 308
38 | Nc1cccc(-c2cn[nH]c2)c1 | 189 to 191
39 | OC1CC2CCCC(C1)N2Cc1ccccc1 (centres undefined) | 57 to 59
40 | COCCOc1ccc(C(F)(F)F)cc1N | 43 to 47
41 | C1CC(C2CCOCC2)CCN1 | 52 to 54
42 | O=C1NC(=O)C2(CC(C(=O)O)C2)N1 (centres undefined) | 246 to 248
43 | ClCc1nc(-c2ccc3c(c2)OCO3)no1 | 50 to 52
44 | Cc1nn(C)c2ncc(C=O)cc12 | 107 to 109
45 | Oc1ccc(OCc2ccncc2)cc1 | 179 to 181
46 | O=[N+]([O-])c1ccc(Br)c(S(=O)(=O)Cl)c1 | 86 to 88
47 | Sc1nnc(NC2CC2)s1 | 170 to 172
48 | O=C1CCCCC1c1ccc(C(F)(F)F)cc1 (centres undefined) | 96 to 98

Row | SMILES | melting point [°C]
49 | CC(C)(C)OC(=O)Nc1ccc(C(=O)O)cc1O | 179 to 181
50 | Cc1nc(COc2ccccc2C(=O)O)no1 | 89 to 91
51 | CC1CNc2ccccc2S1 (centres undefined) | 41 to 43
52 | CCOc1ccc(OCCCC(=O)O)cc1 | 104 to 106
53 | CCN(C(C)=O)c1nc(CCl)cs1 | 82 to 84
54 | O=c1nc(S)[nH]nc1-c1cc(Cl)sc1Cl | 203 to 205
55 | COC1=CC(=C(N)N=O)C=CN1 | 174 to 176
56 | Nc1cccc(OCC(F)(F)F)c1 | 34 to 36
57 | O=C(NO)c1occc1CSc1ccccc1 | 99 to 101
58 | Cc1nn(-c2ccccc2)c(N)c1C(F)(F)F | 77 to 79
59 | Cn1c(=O)n(C)c2cc(S(N)(=O)=O)c(Br)cc21 | 314 to 316
60 | c1coc(-c2cc[nH]n2)c1 | 101 to 103
61 | CCCc1ccc(N)c(C(=O)O)c1 | 116 to 118
62 | O=C(CN1CCNCC1)NC1CCCCC1 | 99 to 101
63 | CC(C1CC2CCC1C2)n1c(N)cc(=O)[nH]c1=O (centres undefined) | 248 to 250
64 | NNC(=O)CSc1ccccc1O | 134 to 136
65 | N#Cc1cccc(S(=O)(=O)n2ccc(N)n2)c1 | 183 to 185
66 | CCNS(=O)(=O)c1ccc(/C=C/C(=O)O)cc1 | 248 to 250
67 | O=C1CCNc2ccc(F)cc21 | 49 to 51
68 | Cc1nn(Cc2ccccc2)c(C)c1C=NO | 135 to 137
69 | Clc1ccc(CN2CCNCC2)cn1 | 89 to 91
70 | N#CCC(=O)NC1CC1 | 87 to 90
71 | O=C(O)CNC(=O)CC1CCCC1 | 98 to 100
72 | CC(N)c1ccc(S(C)(=O)=O)c(F)c1 (centres undefined) | 60 to 62

Row | SMILES | melting point [°C]
73 | Cc1ccc(C(N)C(=O)O)cc1 (centres undefined) | 269 to 271
74 | CCOC(=O)C(=O)CC(=O)c1cccnc1 | 66 to 68
75 | NC(=O)Cn1cnc2cc(C(=O)O)ccc21 | 298 to 300
76 | Clc1ncnc2c1CCCC2 | 79 to 81
77 | Cc1ccc(-n2cnnn2)cc1NC(=O)OCC(F)(F)F | 199 to 201
78 | O=C(O)Cc1ccco1 | 64 to 69
79 | Cc1cc(Cl)c(S(=O)(=O)Cl)cc1[N+](=O)[O-] | 129 to 131
80 | COc1ccccc1-c1nn(C)cc1C(=O)O | 203 to 205
81 | O=C(O)c1nn(-c2ccccc2)cc1O | 154 to 156
82 | Nc1cc(F)c(F)cc1Br | 47 to 49
83 | CN(CC(=O)O)C(=O)C1CC1 | 112 to 114
84 | Nc1[nH]nc(-c2ccccc2)c1-c1ccccc1 | 141 to 143
85 | CCOC(=O)CNC(=O)NCC(=O)OCC | 146 to 148
86 | CCN(CC)C(=O)COc1ccc(C(C)=O)cc1 | 61 to 63
87 | O=C(O)/C(=C\c1ccccc1)c1cccs1 | 169 to 171
88 | Cc1ccc(NC(=O)C(Cl)c2ccccc2)cc1Cl (centres undefined) | 120 to 122
89 | Nc1noc(-c2ccoc2)n1 | 179 to 181
90 | Cc1nc(S)c2c(=O)n(C)c(=O)n(CC(C)C)c2n1 | 172 to 174
91 | Cc1c(NC(=O)CCCl)cccc1[N+](=O)[O-] | 131 to 133
92 | CN(Cc1ccccc1)c1ccc([N+](=O)[O-])cn1 | 56 to 58
93 | Cc1cc(C)c(C(N)=O)c(Cl)n1 | 172 to 174
94 | Nc1nc(CCl)nc(Nc2ccc(F)cc2)n1 | 170 to 172
95 | COc1ccc(N2C(=O)CCC(C(=O)O)C2c2ccccc2OC)cc1 (centres undefined) | 205 to 208
96 | Cc1cccc([N+](=O)[O-])c1C(N)=O | 158 to 160

Row | SMILES | melting point [°C]
97 | O=C1NC(=O)C(Cc2ccccc2)(Cc2ccccc2)N1 | 318 to 320
98 | CC(=O)N1CCN(Cc2ccc(C(=O)O)cc2)CC1 | 229 to 231
99 | COc1ccc(C(C)=O)c(OCc2ccccc2)c1 | 59 to 61
100 | CC(=O)Nc1ccc(N)nc1 | 166 to 168
101 | CCOc1ccc(S(=O)(=O)NCCC(=O)O)cc1 | 178 to 180
102 | O=C(O)c1csc(S(=O)(=O)N2CCOCC2)c1 | 226 to 228
103 | Cc1cc(C)n(-c2ccc(CO)cc2)n1 | < 17
104 | O=S(=O)(c1cccc(-c2nnc(S)o2)c1)N1CCCCC1 | 205 to 207
105 | CCOc1cccc(C=O)n1 | 55 to 57
106 | CNC(=O)CC(=O)O | 104 to 106
107 | CCOc1ccc(-c2nn(-c3ccccc3)cc2C=O)cc1Cl | 100 to 102
108 | Nc1cccc(S(=O)(=O)N2CCCC2)c1 | 156 to 158
109 | Cc1nn(C)c(C(F)(F)Cl)c1C(=O)O | 122 to 124
110 | COc1ccc(-c2nc(N)cc(=O)[nH]2)cc1 | 271 to 273
111 | CC(C)n1[nH]ccc1=NC(=O)Nc1ccccc1 | 110 to 112
112 | O=[N+]([O-])c1cc(F)c(S(=O)(=O)Cl)c(F)c1 | 73 to 75
113 | O=C(O)c1ccc(-n2cnnn2)cc1Cl | 179 to 181
114 | NS(=O)(=O)c1ccc(NC(=O)CCl)cc1 | 156 to 158
115 | COc1ccc(-c2cc(C(=O)NN)[nH]n2)cc1 | 205 to 220
116 | CCNc1cc2c(nn1)CCNC2 | 140 to 142
117 | Cc1cc(C)cc(N2CCC(C(=O)O)C2=O)c1 (centres undefined) | 115 to 117
118 | N#Cc1cc(Br)cs1 | 47 to 49
119 | COc1cc(C=O)ccc1[N+](=O)[O-] | 89 to 91
120 | Nc1cc(C(=O)O)ccc1OCC(F)(F)F | 176 to 178

Row | SMILES | melting point [°C]
121 | COc1cc(C#N)ccc1OC(F)F | 47 to 51
122 | O=C1CC2(CCCCC2)C(=O)O1 | 54 to 58
123 | NC(=NO)C1CN(Cc2ccccc2)CCO1 (centres undefined) | 116 to 118
124 | Nc1nncn1Cc1ccccc1 | 210 to 212
125 | Cc1ccc(Cc2cnc(N)s2)cc1F | 139 to 141
126 | CC(C)C(Br)C(=O)Nc1ccccc1Cl (centres undefined) | 114 to 116
127 | CS(=O)(=O)c1cccc(C(=O)c2ccc(F)cc2)c1 | 66 to 68
128 | Nc1nnnn1-c1ccccc1 | 159 to 161
129 | CCCC(=O)N1CCCC1C(=O)O (centres undefined) | 115 to 117
130 | O=c1[nH]nc(-c2ccccc2)cc1C(F)(F)F | 184 to 186
131 | NS(=O)(=O)Cc1ccc(CO)cc1 | 118 to 120
132 | Nc1ccc2[nH]c(=O)sc2c1 | 221 to 223
133 | Cc1cc(C)c2nc(O)cc(C)c2c1 | 261 to 263
134 | O=C(O)CCc1ccoc1 | 63 to 65
135 | O=C(c1ccc2c(c1)CCCN2)N1CCOCC1 | 142 to 144
136 | Fc1cccc2cc(I)cnc12 | 77 to 79
137 | CN(CC(=O)O)C(=O)c1cccs1 | 101 to 103
138 | Cc1ccc(-c2nnc(O)c3ccccc23)cc1 | 250 to 255
139 | NC(=S)N1CCN(c2nccs2)CC1 | 179 to 181
140 | O=C(O)c1csc(-c2cccc3ccccc23)n1 | 144 to 146
141 | Oc1ccc2c(c1)OCCCO2 | 97 to 99
142 | N#Cc1cccc(NN)c1 | 104 to 106
143 | O=C1CCCc2cc(Br)ccc2N1 | 119 to 121
144 | O=C(Cl)c1cc([N+](=O)[O-])ccc1Br | 62 to 64
